# Results taken from patent US6204293A, “Inhibitors of protein isoprenyl transferases” (University of Pittsburgh, priority 1998, dated 2001).
# Where a name gives a salt, the structure may show the parent alone.
# Target: T1, Rat brain protein farnesyltransferase (Rattus norvegicus, UniProt Q02293+Q04631)
# T1 construct: Rat brain protein farnesyltransferase activity is measured; from tissue; host or cells: rat brain
# Experiment: % inhibition of farnesylation, scintillation proximity assay with biotin-K Ras B fragment
# Type: biochemical
# Conditions: Table 2; 1 × 10^-6 M
# How it was run: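 Scintillation proximity read-out of farnesylation, using a biotinylated K Ras B fragment (0.1 mM final) in place of biotin-lamin. Enzyme purified from rat brain; results given as % inhibition.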
# T1 sequence (Q02293 whole entry, one chain of several): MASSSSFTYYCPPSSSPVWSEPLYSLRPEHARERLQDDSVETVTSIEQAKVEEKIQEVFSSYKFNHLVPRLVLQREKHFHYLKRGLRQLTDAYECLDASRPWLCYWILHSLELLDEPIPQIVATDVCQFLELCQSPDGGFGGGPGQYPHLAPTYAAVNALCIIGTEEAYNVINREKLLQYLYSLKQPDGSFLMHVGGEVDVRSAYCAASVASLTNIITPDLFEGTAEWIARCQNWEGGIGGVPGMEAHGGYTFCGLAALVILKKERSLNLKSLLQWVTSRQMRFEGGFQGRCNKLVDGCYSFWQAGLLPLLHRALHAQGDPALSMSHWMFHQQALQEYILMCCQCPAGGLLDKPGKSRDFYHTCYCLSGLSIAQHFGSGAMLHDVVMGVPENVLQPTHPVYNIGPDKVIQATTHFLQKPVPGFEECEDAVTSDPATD
row,SMILES,% inhibition at 1 × 10^-6 M [%]
1,CSCC[C@H](NC(=O)c1ccc(CN(Cc2ccccc2)c2ccccc2SC)cc1-c1ccccc1C)C(=O)[O-].[Li+] [Example 850],90
2,CSCC[C@H](NC(=O)c1ccc(CNc2ccc(N3CCCCC3)cc2)cc1-c1ccccc1C)C(=O)O [Example 862],95
3,CSCC[C@H](NC(=O)c1ccc(CN2CCN(C(=O)OC(C)(C)C)CC2)cc1-c1ccccc1C)C(=O)O [Example 866],62
4,CSCC[C@H](NC(=O)c1ccc(CN2CCN(c3ccccc3)CC2)cc1-c1ccccc1C)C(=O)O [Example 867],71
5,CSCC[C@H](NC(=O)c1ccc(CN(Cc2cncs2)S(C)(=O)=O)cc1-c1ccccc1C)C(=O)O [Example 878],95
6,CSCC[C@H](NC(=O)c1ccc(CN(C(=O)OC(C)(C)C)C(CC2CCCCC2)CC2CCCCC2)cc1-c1ccccc1C)C(=O)O [Example 886],35

# Same assay, conditions: Table 3; 1 × 10^-7 M
row,SMILES,% inhibition at 1 × 10^-7 M [%]
1,CSCC[C@H](NC(=O)c1ccc(CN(Cc2ccccc2)c2ccccc2[N+](=O)[O-])cc1-c1ccccc1C)C(=O)[O-].[Li+] [Example 849],66
2,CSCC[C@H](NC(=O)c1ccc(/C=C/c2ccc(Oc3ccccc3Cl)cc2)cc1-c1ccccc1C)C(=O)O [Example 854],78
3,CSCC[C@H](NC(=O)c1ccc(CCc2ccc(Oc3ccccc3Cl)cc2)cc1-c1ccccc1C)C(=O)O [Example 855],92
4,CSCC[C@H](NC(=O)c1ccc(/C=C/c2ccc(Oc3ccccc3[N+](=O)[O-])cc2)cc1-c1ccccc1C)C(=O)O [Example 856],97
5,CSCC[C@H](NC(=O)c1ccc(CCc2ccc(Oc3ccccc3N)cc2)cc1-c1ccccc1C)C(=O)O [Example 857],92
6,CSCC[C@H](NC(=O)c1ccc(CCc2ccc(Oc3cccc(Cl)c3)cc2)cc1-c1ccccc1C)C(=O)O [Example 859],86
7,CSCC[C@H](NC(=O)c1ccc(/C=C/c2ccc(Oc3cccc([N+](=O)[O-])c3)cc2)cc1-c1ccccc1C)C(=O)O [Example 861],65
8,CSCC[C@H](NC(=O)c1ccc(CNc2ccc(N3CCOCC3)cc2)cc1-c1ccccc1C)C(=O)O [Example 863],72
9,CSCC[C@H](NC(=O)c1ccc(CNc2ccc(Oc3ccccc3)cc2)cc1-c1ccccc1C)C(=O)O [Example 864],84

# Same assay, conditions: Table 4; 1 × 10^-8 M
row,SMILES,% inhibition at 1 × 10^-8 M [%]
1,CSCC[C@H](NC(=O)c1ccc(CN(Cc2ccccc2)c2ccc(Cl)cc2)cc1-c1ccccc1C)C(=O)O [Example 848],87
2,CSCC[C@H](NC(=O)c1ccc(CN(Cc2ccccc2)c2cccc(SC)c2)cc1-c1ccccc1C)C(=O)[O-].[Li+] [Example 851],82
3,CSCC[C@H](NC(=O)c1ccc(CN(Cc2ccccc2)c2ccc(SC)cc2)cc1-c1ccccc1C)C(=O)[O-].[Li+] [Example 852],79
4,CSCC[C@H](NC(=O)c1ccc(CN(Cc2ccccc2)c2ccc(C(F)(F)F)cc2)cc1-c1ccccc1C)C(=O)O [Example 853],85
5,CSCC[C@H](NC(=O)c1ccc(/C=C/c2ccc(Oc3cccc(Cl)c3)cc2)cc1-c1ccccc1C)C(=O)O [Example 858],60
6,CSCC[C@H](NC(=O)c1ccc(CCc2ccc(Oc3ccc(Cl)cc3)cc2)cc1-c1ccccc1C)C(=O)O [Example 860],85
7,CSCC[C@H](NC(=O)c1ccc(CN(Cc2cncs2)S(=O)(=O)c2ccc(C)cc2)cc1-c1ccccc1C)C(=O)O [Example 877],68
8,CSCC[C@H](NC(=O)c1ccc(CN(CCC2CCCCC2)C2CC2)cc1-c1ccccc1C)C(=O)O [Example 880],95
9,CSCC[C@H](NC(=O)c1ccc(CN(Cc2cncs2)C2CCSCC2)cc1-c1ccccc1C)C(=O)O [Example 881],69
10,CSCC[C@H](NC(=O)c1ccc(CN[C@@H](CC2CCCCC2)C(=O)N2CCCCC2)cc1-c1ccccc1C)C(=O)O [Example 887],92
11,CSCC[C@H](NC(=O)c1ccc(CON=C(Cc2ccccc2)Cc2ccccc2)cc1-c1ccccc1C)C(=O)O [Example 888],86

# Same assay, conditions: read-out: % inhibition at 1 × 10^-6 M
row,SMILES,inhibition at 1 µM [%]
1,"CSCC[C@H](NC(=O)c1ccc(COCc2ccc(-c3ccc(F)cc3)o2)cc1-c1cccc2ccccc12)C(=O)O [Example 868, N-[4-(5-(4-fluorophenyl)furan-2-ylmethoxymethyl)-2-naphth-1-ylbenzoyl]methionine lithium salt]",89
2,"CSCC[C@H](NC(=O)c1ccc(OCCCc2ccccc2)cc1-c1ccccc1C)C(=O)O [Example 879, N-[4-(3-phenylpropoxy)-2-(2-methylphenyl)benzoyl]methionine, lithium salt]",95

# Same assay, conditions: read-out: % inhibition at 1 × 10^-6 M; Table 2; 1 × 10^-6 M
row,SMILES,inhibition at 1 µM [%]
1,"CSCC[C@H](NC(=O)c1ccc(COCc2ccc(-c3ccc(F)cc3)o2)cc1-c1ccccc1C(F)(F)F)C(=O)O [Example 872, N-[4-(5-(4-fluorophenyl)furan-2-ylmethoxymethyl)-2-(2-trifluoromethylphenyl)benzoyl]methionine Lithium salt]",74
2,"CSCC[C@H](NC(=O)c1ccc(COCC(CC2CCCCC2)CC2CCCCC2)cc1-c1ccccc1C)C(=O)O [Example 889, lithium salt]",95

# Same assay, conditions: read-out: % inhibition at 1 × 10^-7 M
row,SMILES,inhibition at 0.1 µM [%]
1,"CSCC[C@H](NC(=O)c1ccc(COCc2ccc(-c3ccc(F)cc3)o2)cc1-c1ccc(F)cc1Cl)C(=O)O [Example 869, N-[4-(5-(4-fluorophenyl)furan-2-ylmethoxymethyl)-2-(2-chloro-4-fluorophenyl)benzoyl]methionine lithium salt]",92
2,"CSCC[C@H](NC(=O)c1ccc(COCc2cnco2)cc1-c1ccccc1C)C(=O)O [Example 891, N-[4-(oxazol-5-ylmethoxymethyl)-2-(2-methylphenyl)benzoyl]methionine lithium salt]",94
3,"CSCC[C@H](NC(=O)c1ccc(COCc2cnc(-c3cccc(Cl)c3)o2)cc1-c1ccccc1C)C(=O)O [Example 893, N-[4-(2-(3-chlorophenyl)oxazol-5-ylmethoxymethyl)-2-(2-methylphenyl)benzoyl]methionine lithium salt]",87
4,"CSCC[C@H](NC(=O)c1ccc(COCc2cnc(-c3ccc(Cl)cc3)o2)cc1-c1ccccc1C)C(=O)O [Example 894, N-[4-(2-(4-chlorophenyl)oxazol-5-ylmethoxymethyl)-2-(2-methylphenyl)benzoyl]methionine lithium salt]",89
5,"CSCC[C@H](NC(=O)c1ccc(COCc2cnc(C(C)(C)C)s2)cc1-c1ccccc1C)C(=O)O [Example 895, N-[4-(2-t-butylthiazol-5-ylmethoxymethyl)-2-(2-methylphenyl)benzoyl]methionine lithium salt]",92

# Same assay, conditions: read-out: % inhibition at 1 × 10^-7 M; Table 3; 1 × 10^-7 M
row,SMILES,inhibition at 0.1 µM [%]
1,"COc1ncc(COCc2ccc(C(=O)N[C@@H](CCSC)C(=O)O)c(-c3ccccc3C)c2)s1 [Example 896, N-[4-(2-methoxythiazol-5-ylmethoxymethyl)-2-(2-methylphenylbenzoyl]methioninelithium salt]",96

# Same assay, conditions: read-out: % inhibition at 1 × 10^-8 M
row,SMILES,inhibition at 0.01 µM [%]
1,"CSCC[C@H](NC(=O)c1ccc(COCc2cnc(-c3ccccc3Cl)o2)cc1-c1ccccc1C)C(=O)O [Example 892, N-[4-(2-(2-chlorophenyl)oxazol-5-ylmethoxymethyl)-2-(2-methylphenyl)benzoyl]methionine lithium salt]",59
2,"CSCC[C@H](NC(=O)c1ccc(COCc2cnc(-c3ccccc3Cl)s2)cc1-c1ccccc1C)C(=O)O [Example 897, N-[4-(2-(2-chlorophenyl)thiazol-5-ylmethoxymethyl)-2-(2-methylphenyl)benzoyl]methionine lithium salt]",76
3,"CSCC[C@H](NC(=O)c1ccc(COCc2cnc(-c3cccc(F)c3)s2)cc1-c1ccccc1C)C(=O)O [Example 898, N-[4-(2-(3-fluorophenyl)thiazol-5-ylmethoxymethyl)-2-(2-methylphenyl)benzoyl]methionine lithium salt]",82
4,"CSCC[C@H](NC(=O)c1ccc(COCc2cnc(-c3cccc(Cl)c3)s2)cc1-c1ccccc1C)C(=O)O [Example 899, N-[4-(2-(3-chlorophenyl)thiazol-5-ylmethoxymethyl)-2-(2-methylphenyl)benzoyl]methionine lithium salt]",88

# Same assay, conditions: read-out: % inhibition at 1 × 10^-8 M; Table 4; 1 × 10^-8 M
row,SMILES,inhibition at 0.01 µM [%]
1,"CSCC[C@H](NC(=O)c1ccc(CO[C@H](CSC)CC2CCCCC2)cc1-c1ccccc1C)C(=O)O [Example 882, N-[4-(3-Cyclohexyl-1-methylthiopropan-2-yl)oxymethyl-2-(2-methylphenyl)benzoyl]methionine lithium salt]",79
2,"CSCC[C@H](NC(=O)c1ccc(CO[C@H](CSC(C)(C)C)CC2CCCCC2)cc1-c1ccccc1C)C(=O)O [Example 883, N-[4-(3-Cyclohexyl-1-t-butylthiopropan-2-yl)oxymethyl-2-(2-methylphenyl)benzoyl]methionine lithium salt]",91
3,"CSCC[C@H](NC(=O)c1ccc(CO[C@H](CSc2ccccc2)CC2CCCCC2)cc1-c1ccccc1C)C(=O)O [Example 884, N-[4-(3-Cyclohexyl-1-phenylthiopropan-2-yl)oxymethyl-2-(2-methylphenyl)benzoyl]methionine lithium salt]",94
4,"CSCC[C@H](NC(=O)c1ccc(CO[C@@H](CC2CCCCC2)CN2CCOCC2)cc1-c1ccccc1C)C(=O)O [Example 885, N-[4-(3-Cyclohexyl-1-morpholin-4-ylpropan-2-yl)oxymethyl-2-(2-methylphenyl)benzoyl]methionine trifluoroacetate salt]",95
